The subject of assay [1] is LEFCH. The assay is described as follows: Example II: in-water applied herbicidal mixtures, transplanted paddy rice, LEFCH. To be noted: in-water application. In kind it is in vivo, Leptochloa chinensis (Chinese sprangletop). In a few lines:
(§1)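 Greenhouse in-water application: products pipetted one after another into the aqueous layer over mud-grown transplanted rice, with rice seedlings at the 2nd–3rd leaf stage transplanted 4 days earlier. Controls got the solvent blank only; every pot received matching acetone and crop oil concentrate.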

Assay [2] deals with CYPRO. Description: Example II: in-water applied herbicidal mixtures, weed control in transplanted paddy rice (greenhouse), CYPRO. In kind it is in vivo, Cyperus rotundus (purple nutsedge). To be noted: 280 gae/ha; in-water application. In a few lines: as §1
The test system of assay [3] is CENMA. Description: Example V: postemergence herbicidal activity of mixtures in forage crops, CENMA. To be noted: alone, foliar, approximately 21 days. In kind it is in vivo, Centaurea maculosa (spotted knapweed). How it is done:
(§2) Seeds or root cuttings of the desired test plant species were planted in Sun Gro MetroMix® 306 planting mixture, which typically has a pH of 6.0 to 6.8 and an organic matter content of about 30 percent, in plastic pots with a surface area of 126.6 square centimeters (cm^2). […] The plants were grown for 14-60 days in a greenhouse with an approximate 14 hour photoperiod which was maintained at approximately 28° C. during the day and 24° C. during the night.
(§3) Spray solutions of the second herbicide or experimental compound mixtures were prepared by adding the stock solutions to the appropriate amount of dilution solution to form 12 mL spray solution with active ingredients in two-way combinations.

Assay [4] has as its system ECHCG. The assay is described as follows: Example II: in-water applied herbicidal mixtures, transplanted paddy rice, ECHCG. In kind it is in vivo, Echinochloa crus-galli (barnyardgrass). To be noted: in-water application. The essentials:
as §1

For assay [5], the system named is PANDI. Description: Example III: postemergence foliar-applied herbicidal mixtures, row crop weeds, PANDI. In kind it is in vivo, Panicum dichotomiflorum (fall panicum). To be noted: 16 DAA. How it is done:
(§4) The plants were grown for 7-31 days (d) in a greenhouse with an approximate 15 hour (h) photoperiod which was maintained at about 23-29° C. during the day and 22-28° C. during the night.

The subject of assay [6] is SINAR. The assay is described as follows: Example V: postemergence herbicidal activity of mixtures in forage crops, SINAR. The conditions noted are these: alone, foliar, approximately 21 days. In kind it is in vivo, Sinapis arvensis (wild mustard). In a few lines: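 Plants grown from seed or root cuttings in MetroMix 306 (pH 6.0–6.8) for 14–60 days in greenhouse, ~14 h photoperiod, ~28/24 °C day/night. Foliar spray of two-way mixtures of the second herbicide or experimental compounds applied postemergence.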

The test system of assay [7] is PANMI. The assay is described as follows: Example III: postemergence foliar-applied herbicidal mixtures, row crop weeds, PANMI. In kind it is in vivo, Panicum miliaceum (wild-proso millet). The conditions noted are these: 16 DAA. As to the method:
as §4

Assay [8] relates to ECHOR. The assay is described as follows: Example II: in-water applied herbicidal mixtures, transplanted paddy rice, ECHOR. The class given is in vivo, Echinochloa oryzoides (early watergrass). The conditions noted are these: 280 gae/ha; in-water application. In a few lines:
as §1

Assay [9] deals with ELEIN. The assay is described as follows: Example III: postemergence foliar-applied herbicidal mixtures, weeds common to row crops such as corn and soybeans (greenhouse), ELEIN. In kind it is in vivo, Eleusine indica (goosegrass). The conditions noted are these: 14 DAA. How it is done:
as §4

Assay [10] has as its system SONAR. The assay is described as follows: Example V: postemergence herbicidal activity of mixtures in forage crops, SONAR. In kind it is in vivo, Sonchus arvensis (field sowthistle). The conditions noted are these: alone, foliar, approximately 21 days. As to the method: as §2, §3
The test system of assay [11] is SCPJU. The assay is described as follows: Example II: in-water applied herbicidal mixtures, transplanted paddy rice, SCPJU. In kind it is in vivo, Schoenoplectus juncoides (Japanese bulrush). To be noted: in-water application. The essentials: as §1
For assay [12], the system named is POLCO. Description: Example IV: postemergence foliar-applied herbicidal mixtures, cereal crops, POLCO. The class given is in vivo, Polygonum convolvulus (wild buckwheat). To be noted: alone, foliar, 20-22 days. In a few lines: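 Greenhouse plants were grown 7–36 days in potting mix (pH 6.0–6.8) under ~14 h photoperiod at about 18 °C day/17 °C night. Postemergence foliar sprays (12 mL) contained the second cereal herbicide with experimental compound as two- and three-way mixtures.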

For assay [13], the system named is BRSNN. Description: Example IV: postemergence foliar-applied herbicidal mixtures, cereal crops, BRSNN. In kind it is in vivo, Brassica napus (volunteer canola). To be noted: alone, 3 gai/ha, foliar, 20-22 days. How it is done: (§5) Seeds of the desired test plant species were planted in Sun Gro MetroMix 306 planting mixture, which typically has a pH of 6.0 to 6.8 and an organic matter content of about 30 percent, in plastic pots with a surface area of 103.2 square centimeters (cm^2). […] The plants were grown for 7-36 days in a greenhouse with an approximate 14 hour photoperiod which was maintained at about 18° C. during the day and 17° C. during the night.
(§6) Spray solutions of the second cereal herbicide and experimental compound mixtures were prepared by adding the stock solutions to the appropriate amount of dilution solution to form 12 mL spray solution with active ingredients in two- and three-way combinations.

Assay [14] deals with CIRAR. The assay is described as follows: Example IV: postemergence foliar-applied herbicidal mixtures, cereal crops, CIRAR. The class given is in vivo, Cirsium arvense (Canada thistle). To be noted: alone, 20-22 days. How it is done: as §5, §6
In assay [15] the test system is VIOTR. The assay is described as follows: Example IV: postemergence foliar-applied herbicidal mixtures, cereal crops, VIOTR. In kind it is in vivo, Viola tricolor (wild pansy). The conditions noted are these: alone, foliar, 20-22 days. As to the method: as §5, §6
In assay [16] the test system is STEME. The assay is described as follows: Example IV: postemergence foliar-applied herbicidal mixtures, cereal crops, STEME. To be noted: alone, 10 gai/ha, 20-22 days. The class given is in vivo, Stellaria media (common chickweed). How it is done:
as §5, §6

Assay [17] deals with AMARE. The assay is described as follows: Example IV: postemergence foliar-applied herbicidal mixtures, weed control in cereal crops in the greenhouse, AMARE. The class given is in vivo, Amaranthus retroflexus (redroot pigweed). To be noted: alone, 35 gai/ha, 20-22 days. As to the method:
as §5, §6

Consider four molecules from patent US8912120B2, “Herbicidal compositions comprising 4-amino-3-chloro-5-fluoro-6-(4-chloro-2-fluoro-3-methoxyphenyl) pyridine-2-carboxylic acid or a derivative thereof and synthetic auxin herbicides” (Dow AgroSciences, LLC., priority 2012, dated 2014).

Where a name gives a salt, the structure may show the parent alone.

With `O=C(O)COc1ccc(Cl)cc1Cl` [2,4-D DMA Salt, 2-(2,4-dichlorophenoxy)acetic acid with N-methylmethanamine, reference compound], the “Visual Weed Control (%) - 21 DAA LEFCH Obs” value in assay [1] (140 gae/ha) was 0%; in [1] (280 gae/ha), 60%. Moreover, the “Visual Weed Control (%) - 21 DAA CYPRO Obs” value in assay [2] is listed as 0%. Moreover, the “CENMA Obs (observed value)” value in assay [3] (35 gae/ha) was found to be 30%; in assay [3] (70 gae/ha), 50%. Further, the “Visual Weed Control (%) - 21 DAA ECHCG Obs” value in [4] (140 gae/ha) and in [4] (280 gae/ha) was 0% each time. Moreover, the “Visual Weed Control (%) Obs” value is reported as 0% in assay [5] (105 gae/ha); 0% in [5] (210 gae/ha); 0% in assay [7] (52.5 gae/ha); 10% in assay [7] (105 gae/ha); 0% in [9] (52.5 gae/ha); 0% in [9] (105 gae/ha). The “SINAR Obs (observed value)” value in [6] (35 gae/ha) is reported as 35%; in assay [6] (70 gae/ha) it was 80%. Further, the “Visual Weed Control (%) - 21 DAA ECHOR Obs” value in assay [8] was found to be 15%. Also, the “SONAR Obs (observed value)” value in [10] (35 gae/ha) is 20%; in assay [10] (70 gae/ha), 85%. In addition, the “Visual Weed Control (%) - 21 DAA SCPJU Obs” value in assay [11] (140 gae/ha) and in assay [11] (280 gae/ha) was 0% throughout.
As to `Nc1cc(Cl)nc(C(=O)O)c1Cl` [Aminopyralid, 4-amino-3,6-dichloro-2-pyridinecarboxylic acid], the “POLCO Ob (observed value)” value in [12] (3 gai/ha) turned out to be 3%. Besides, the “BRSNN Ob (observed value)” value in assay [13] was found to be 0%. In addition, in [14] (3 gai/ha), the “CIRAR Ob (observed value)” value worked out at 13%.
As to `Nc1c(Cl)c(Cl)nc(C(=O)O)c1Cl` [Picloram, 4-amino-3,5,6-trichloro-2-pyridinecarboxylic acid], in [12] (10 gai/ha), the “POLCO Ob (observed value)” value is on record as 40%. In addition, the “VIOTR Ob (observed value)” value in [15] (10 gai/ha) came out at 3%. Moreover, in assay [16], the “STEME Ob (observed value)” value is on record as 0%.
In the case of `Nc1c(Cl)c(F)nc(OCC(=O)O)c1Cl` [Fluroxypyr, 2-[(4-amino-3,5-dichloro-6-fluoro-2-pyridinyl)oxy]acetic acid], the “POLCO Ob (observed value)” value in assay [12] (35 gai/ha) is given as 23%. In assay [15] (35 gai/ha), the “VIOTR Ob (observed value)” value amounted to 10%. In addition, in [17], the “AMARE Ob (observed value)” value worked out at 33%. For the same molecule, the “CIRAR Ob (observed value)” value in assay [14] (35 gai/ha) came to 3%.
